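Where inhibition never reached the appropriate level, the endpoint shown equals the highest concentration tested. Otherwise, values were interpolated linearly from a five-concentration, 48-hour dose response in 96-well plates. Definition used: TGI = concentration required for complete inhibition of growth.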
Assays:
Experiment in all cases: growth of human tumour cells (NCI), 48 h
A549 NSCLC = test system: A549 NSCLC
UACC-62 melanoma = test system: UACC-62 melanoma
IGROV1 ovarian = test system: IGROV1 ovarian
786-0 renal = test system: 786-0 renal
CAKI-1 renal = test system: CAKI-1 renal
K-562 leukemia = test system: K-562 leukemia
SNB-19 CNS = test system: SNB-19 CNS
XF 498 CNS = test system: XF 498 CNS
UACC-257 melanoma = test system: UACC-257 melanoma
NCI-H23 lung = test system: NCI-H23 lung
SK-MEL-28 melanoma = test system: SK-MEL-28 melanoma
SN12C renal = test system: SN12C renal
MALME-3M melanoma = test system: MALME-3M melanoma
ACHN renal = test system: ACHN renal
OVCAR-3 ovarian = test system: OVCAR-3 ovarian
SK-MEL-5 melanoma = test system: SK-MEL-5 melanoma
HOP-92 NSCLC = test system: HOP-92 NSCLC
NCI-H522 lung = test system: NCI-H522 lung
RPMI-8226 leukemia = test system: RPMI-8226 leukemia
DLD-1 colon = test system: DLD-1 colon
RXF-631 renal = test system: RXF-631 renal
M19-MEL melanoma = test system: M19-MEL melanoma
U251 CNS = test system: U251 CNS
SF-539 CNS = test system: SF-539 CNS
M14 melanoma = test system: M14 melanoma
OVCAR-5 ovarian = test system: OVCAR-5 ovarian
UO-31 renal = test system: UO-31 renal
DMS 273 small cell lung = test system: DMS 273 small cell lung
RXF 393 renal = test system: RXF 393 renal
NCI-H226 lung = test system: NCI-H226 lung
SF-295 CNS = test system: SF-295 CNS
MOLT-4 leukemia = test system: MOLT-4 leukemia
SNB-75 CNS = test system: SNB-75 CNS
NCI-H460 lung = test system: NCI-H460 lung
LXFL 529 NSCLC = test system: LXFL 529 NSCLC
HOP-62 NSCLC = test system: HOP-62 NSCLC
KM20L2 colon = test system: KM20L2 colon
SK-OV-3 ovarian = test system: SK-OV-3 ovarian
SR leukemia = test system: SR leukemia
COLO 205 colon = test system: COLO 205 colon
KM12 colon = test system: KM12 colon
SF-268 CNS = test system: SF-268 CNS
OVCAR-8 ovarian = test system: OVCAR-8 ovarian
TK-10 renal = test system: TK-10 renal
SW-620 colon = test system: SW-620 colon
HL-60(TB) leukemia = test system: HL-60(TB) leukemia
HCT-15 colon = test system: HCT-15 colon
SNB-78 CNS = test system: SNB-78 CNS
OVCAR-4 ovarian = test system: OVCAR-4 ovarian
HCC-2998 colon = test system: HCC-2998 colon
HCT-116 colon = test system: HCT-116 colon
HT29 colon = test system: HT29 colon
LOX IMVI melanoma = test system: LOX IMVI melanoma
DMS 114 small cell lung = test system: DMS 114 small cell lung
CCRF-CEM leukemia = test system: CCRF-CEM leukemia
EKVX NSCLC = test system: EKVX NSCLC
SK-MEL-2 melanoma = test system: SK-MEL-2 melanoma
HOP-18 NSCLC = test system: HOP-18 NSCLC
A498 renal = test system: A498 renal

`COC(=O)N/N=C/c1oc(-c2ccccc2)c(-c2ccccc2)c1[N+](=O)[O-]` showed a TGI (A549 NSCLC) of over 100 µM, a TGI (UACC-62 melanoma) of over 100 µM and a TGI (IGROV1 ovarian) of over 100 µM. For the same compound, the TGI (786-0 renal) was over 100 µM, the TGI (CAKI-1 renal) was over 100 µM and the TGI (K-562 leukemia) was over 100 µM. The TGI (SNB-19 CNS) was over 100 µM, the TGI (XF 498 CNS) was over 100 µM and the TGI (UACC-257 melanoma) was over 100 µM. For the same compound, the TGI (NCI-H23 lung) was over 100 µM, the TGI (SK-MEL-28 melanoma) was over 100 µM and the TGI (SN12C renal) was over 100 µM. It also gave a TGI (MALME-3M melanoma) of over 100 µM, a TGI (ACHN renal) of over 100 µM and a TGI (OVCAR-3 ovarian) of over 100 µM. It also gave a TGI (SK-MEL-5 melanoma) of over 100 µM, a TGI (HOP-92 NSCLC) of over 100 µM and a TGI (NCI-H522 lung) of over 100 µM. It also gave a TGI (RPMI-8226 leukemia) of over 100 µM, a TGI (DLD-1 colon) of over 100 µM and a TGI (RXF-631 renal) of over 100 µM. The TGI (M19-MEL melanoma) was over 100 µM, the TGI (U251 CNS) was over 100 µM and the TGI (SF-539 CNS) was over 100 µM. The TGI (M14 melanoma) was over 100 µM, the TGI (OVCAR-5 ovarian) was over 100 µM and the TGI (UO-31 renal) was over 100 µM. It also gave a TGI (DMS 273 small cell lung) of over 100 µM, a TGI (RXF 393 renal) of over 100 µM and a TGI (NCI-H226 lung) of over 100 µM. It also gave a TGI (SF-295 CNS) of over 100 µM, a TGI (MOLT-4 leukemia) of over 100 µM and a TGI (SNB-75 CNS) of over 100 µM. For the same compound, the TGI (NCI-H460 lung) was over 100 µM, the TGI (LXFL 529 NSCLC) was over 100 µM and the TGI (HOP-62 NSCLC) was over 100 µM. For the same compound, the TGI (KM20L2 colon) was over 100 µM, the TGI (SK-OV-3 ovarian) was over 100 µM and the TGI (SR leukemia) was over 100 µM. For the same compound, the TGI (COLO 205 colon) was over 100 µM, the TGI (KM12 colon) was over 100 µM and the TGI (SF-268 CNS) was over 100 µM. The TGI (OVCAR-8 ovarian) was over 100 µM, the TGI (TK-10 renal) was over 100 µM and the TGI (SW-620 colon) was over 100 µM. For the same compound, the TGI (HL-60(TB) leukemia) was over 100 µM, the TGI (HCT-15 colon) was over 100 µM and the TGI (SNB-78 CNS) was over 100 µM. The TGI (OVCAR-4 ovarian) was over 100 µM, the TGI (HCC-2998 colon) was over 100 µM and the TGI (HCT-116 colon) was over 100 µM. For the same compound, the TGI (HT29 colon) was over 100 µM, the TGI (LOX IMVI melanoma) was over 100 µM and the TGI (DMS 114 small cell lung) was over 100 µM.
`O=C(Nc1ccccc1Br)c1cccc([N+](=O)[O-])c1O` showed a TGI (A549 NSCLC) of over 100 µM, a TGI (UACC-62 melanoma) of 16.4 µM and a TGI (IGROV1 ovarian) of over 59.7 µM. The TGI (786-0 renal) was over 41 µM, the TGI (CAKI-1 renal) was over 43.8 µM and the TGI (K-562 leukemia) was over 100 µM. The TGI (SNB-19 CNS) was over 100 µM, the TGI (UACC-257 melanoma) was 10.1 µM and the TGI (NCI-H23 lung) was 6.31 µM. For the same compound, the TGI (SK-MEL-28 melanoma) was 59.9 µM, the TGI (SN12C renal) was over 81.8 µM and the TGI (MALME-3M melanoma) was 7.38 µM. It also gave a TGI (ACHN renal) of over 36.8 µM, a TGI (OVCAR-3 ovarian) of 7.51 µM and a TGI (SK-MEL-5 melanoma) of 5.11 µM. The TGI (HOP-92 NSCLC) was 4.99 µM, the TGI (NCI-H522 lung) was 6.4 µM and the TGI (RPMI-8226 leukemia) was 6.27 µM. It also gave a TGI (DLD-1 colon) of over 100 µM, a TGI (RXF-631 renal) of over 100 µM and a TGI (M19-MEL melanoma) of 12.9 µM. It also gave a TGI (U251 CNS) of 14.9 µM, a TGI (CCRF-CEM leukemia) of over 40.3 µM and a TGI (SF-539 CNS) of 35 µM. For the same compound, the TGI (M14 melanoma) was 28.9 µM, the TGI (OVCAR-5 ovarian) was over 94 µM and the TGI (UO-31 renal) was 5.73 µM. The TGI (DMS 273 small cell lung) was over 48.8 µM, the TGI (RXF 393 renal) was 6.71 µM and the TGI (EKVX NSCLC) was 42.9 µM. For the same compound, the TGI (NCI-H226 lung) was 14.8 µM, the TGI (SF-295 CNS) was 25.2 µM and the TGI (MOLT-4 leukemia) was 10.4 µM. For the same compound, the TGI (SNB-75 CNS) was 53.1 µM, the TGI (NCI-H460 lung) was over 37.9 µM and the TGI (LXFL 529 NSCLC) was 22.1 µM. It also gave a TGI (HOP-62 NSCLC) of 9.79 µM, a TGI (KM20L2 colon) of 36.7 µM and a TGI (SK-OV-3 ovarian) of over 57.8 µM. The TGI (SR leukemia) was 33 µM, the TGI (COLO 205 colon) was over 33.4 µM and the TGI (KM12 colon) was 19.3 µM. The TGI (SF-268 CNS) was over 100 µM, the TGI (SK-MEL-2 melanoma) was 52.7 µM and the TGI (OVCAR-8 ovarian) was over 71.4 µM. It also gave a TGI (TK-10 renal) of 12.6 µM, a TGI (SW-620 colon) of over 100 µM and a TGI (HL-60(TB) leukemia) of 12.9 µM. The TGI (HOP-18 NSCLC) was over 25.1 µM, the TGI (HCT-15 colon) was 25.4 µM and the TGI (SNB-78 CNS) was over 84.8 µM. For the same compound, the TGI (OVCAR-4 ovarian) was over 28.9 µM, the TGI (HCC-2998 colon) was 16.6 µM and the TGI (HCT-116 colon) was 14.8 µM. It also gave a TGI (A498 renal) of 9.05 µM, a TGI (HT29 colon) of over 63.3 µM and a TGI (LOX IMVI melanoma) of 10.7 µM. It also gave a TGI (DMS 114 small cell lung) of 18 µM.

Source: PubChem BioAssay (NCI)
